The results in this text go back to patent US20100016331A1, “NOVEL COMPOUNDS” (priority 2006, published 2010).

Molecules are shown by their SMILES.

Experiment [1] deals with T1, glucocorticoid receptor (Homo sapiens, UniProt P04150).
T1 construct: a partially purified full length glucocorticoid receptor were added to the plates
T1 sequence (P04150 1-777): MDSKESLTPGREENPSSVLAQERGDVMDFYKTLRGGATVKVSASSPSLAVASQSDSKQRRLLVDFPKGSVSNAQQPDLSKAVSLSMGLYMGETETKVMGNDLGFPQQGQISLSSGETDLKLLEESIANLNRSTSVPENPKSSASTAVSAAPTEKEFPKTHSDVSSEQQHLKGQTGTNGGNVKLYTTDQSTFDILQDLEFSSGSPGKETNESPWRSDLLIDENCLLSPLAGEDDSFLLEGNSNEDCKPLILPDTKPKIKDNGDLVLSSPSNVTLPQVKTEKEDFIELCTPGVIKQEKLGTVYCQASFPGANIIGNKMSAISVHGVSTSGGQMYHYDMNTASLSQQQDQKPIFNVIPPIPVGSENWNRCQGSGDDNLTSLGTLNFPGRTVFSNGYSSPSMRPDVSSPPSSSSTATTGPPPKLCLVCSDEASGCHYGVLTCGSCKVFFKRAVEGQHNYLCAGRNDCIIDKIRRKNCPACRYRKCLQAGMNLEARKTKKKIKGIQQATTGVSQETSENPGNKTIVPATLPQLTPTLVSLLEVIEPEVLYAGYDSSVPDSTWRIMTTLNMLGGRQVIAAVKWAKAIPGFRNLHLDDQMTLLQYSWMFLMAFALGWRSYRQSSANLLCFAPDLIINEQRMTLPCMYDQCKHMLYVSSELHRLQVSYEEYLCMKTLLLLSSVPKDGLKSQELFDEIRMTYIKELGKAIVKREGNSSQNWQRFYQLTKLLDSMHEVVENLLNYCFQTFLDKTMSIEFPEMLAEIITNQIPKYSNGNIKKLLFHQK
Put plainly: Glucocorticoid Receptor Binding Assay (fluorescence polarisation, competition with Alexa 555 labelled dexamethasone derivative). The note with it: displacement of fluorescent dexamethasone, partially purified full length glucocorticoid receptor, 2 hours at room temperature; read-out: glucocorticoid binding pIC50 (converted). As to the method:
Glucocorticoid Receptor Binding Assay
The ability of compounds to bind to the glucocorticoid receptor was determined by assessing their ability to compete with an Alexa 555 fluorescently-labelled dexamethasone derivative. Compounds were solvated and dilutedin DMSO, and transferred directly into assay plates. Fluorescent dexamethasone and a partially purified full length glucocorticoid receptor were added to the plates, together with buffer components to stabilise the GR protein (including stabilisation peptide (Panvera catalogue number P2815)) andincubated at room temperature for 2 hours in the dark. Binding of each compound was assessed by analysing the displacement of fluorescent ligand by measuring the decrease in fluorescence polarisation signal from the mixture.
(In fluorescence polarisation assays a small probe gives low polarisation when free and higher when bound to something large.)

Experiment [2] has as its system NFkB Activity. Description: Glucocorticoid Mediated Transrepression of NFkB Activity (A549 cells, NFkB dependent ELAM promoter, secreted placental alkaline phosphatase reporter, TNFα stimulated). The format is cell-based. The note with it: Human A549 lung epithelial cells, 3 ng/ml human recombinant TNFα, 16 hr; read-out: pEC50, transrepression of NFkB activity (converted). The text has this:
Glucocorticoid Mediated Transrepression of NFkB Activity
Human A549 lung epithelial cells were engineered to contain a secreted placental alkaline phosphatase gene under the control of the distal region of the NFkB dependent ELAM promoter as previously described in Ray, K. P., Farrow, S., Daly, M., Talabot, F. and Searle, N. “Induction of the E-selectin promoter by interleukin 1 and tumour necrosis factor alpha, andinhibition by glucocorticoids” Biochemical Journal (1997) 328: 707-15.
Compounds were solvated and dilutedin DMSO, and transferred directly into assay plates such that the final concentration of DMSO was 0.7%. Following the addition of cells (40K per well), plates were incubated for 1 hr prior to the addition of 3 ng/ml human recombinant TNFα. Following continued incubation for 16 hr, alkaline phosphatase activity was determined by measuring the change in optical density at 405 nm with time following the addition of 0.7 volumes of assay buffer (1 mg/ml p-nitrophenylphosphate dissolvedin 1M diethanolamine, 0.28M NaCl, 0.5 mM MgCl2). Dose response curves were constructed from which EC50 values were estimated.

For the molecule `COc1ccc(F)cc1C(C)(C)CC(O)(CNc1cc(C)cc2c1cnn2-c1cccc(C(=O)N[C@H]2CCOC2=O)c1)C(F)(F)F` (single isomer, unassigned) [Example 21-A], the IC50 in experiment [1] was less than 316 nM. Also, the EC50 in experiment [2] is less than 10 nM.
